Molecules are shown by their SMILES.

One experiment deals with JNK1 (Homo sapiens (Human), UniProt P45983). Briefly: In Vitro JNK1 Assay (TR-FRET, phosphorylation of GST-c-Jun). In kind it is biochemical. As to conditions: 0.2 nM active JNK1 kinase, 26.7 nM GST-c-Jun, 2 μM ATP, 30 min at room temperature. The method in brief: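 IC50 derived from percent inhibition across 10 serially diluted concentrations, with TR-FRET detection of phospho-c-Jun via an anti-phospho-c-Jun antibody after EDTA stop. Substrate was GST-c-Jun 1-79, reacted 30 min at room temperature in pH 7.0 HEPES buffer with MgCl2, DTT, vanadate and BSA.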
Sequence of JNK1 (P45983 whole entry): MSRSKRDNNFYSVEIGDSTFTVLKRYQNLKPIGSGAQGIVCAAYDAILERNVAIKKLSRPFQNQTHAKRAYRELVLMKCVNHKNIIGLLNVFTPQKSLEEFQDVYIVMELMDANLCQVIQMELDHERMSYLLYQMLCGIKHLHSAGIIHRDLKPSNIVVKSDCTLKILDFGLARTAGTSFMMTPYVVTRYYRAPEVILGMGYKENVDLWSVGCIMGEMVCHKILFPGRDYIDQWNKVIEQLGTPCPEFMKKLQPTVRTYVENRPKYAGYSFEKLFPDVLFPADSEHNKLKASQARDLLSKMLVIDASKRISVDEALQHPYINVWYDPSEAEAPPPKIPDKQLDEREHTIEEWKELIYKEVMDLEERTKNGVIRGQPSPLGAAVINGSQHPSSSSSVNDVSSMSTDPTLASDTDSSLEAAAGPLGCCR
On the technique in general: In TR-FRET formats the signal depends on donor and acceptor labels being close together.

Experiment [1] deals with phospho(Ser63)-c-jun in HK-2 cells. Briefly: Cell-Based Assay for JNK Inhibitors (in-cell ELISA, phospho(Ser63)-c-jun after TNFα). As to conditions: HK-2 cells (human proximal tubule cells), 60 minutes compound, then 10 ng/mL TNFα for 30 minutes. The method, boiled down:
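HK-2 human proximal tubule cells were seeded at 40,000 cells/well, cultured 24 h, then serum-starved 16–24 h before TNFα stimulation with compound. Phospho(Ser63)-c-jun was quantified by in-cell ELISA on fixed, permeabilised cells, using a rabbit phospho-specific primary (overnight, 4 °C) and an HRP-linked anti-rabbit secondary. Absorbance was read at 450 nm.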
(In an ELISA, binding on a coated surface is turned into a signal by an enzyme label.)

The term IC50 denotes the concentration that gives 50% inhibition. As a reminder, the EC50 is the concentration needed to bring the measured effect to its halfway point. Consider `O=C(NCc1cn(-c2ccccc2Cl)c2cc(Cl)ccc2c1=O)c1ccc(N2CCOCC2)nc1` [Example I-100], for which, at JNK1, the IC50 was determined as 90 nM. Further, in experiment [1], the response was half-maximal at 29000 nM (EC50).
In turn, `O=C(NCc1cn(-c2ccccc2F)c2cc(F)ccc2c1=O)c1ccc(N2CCC(CO)CC2)nc1` [Example I-106, 4-Hydroxymethyl-3,4,5,6-tetrahydro-2H-[1,2′]bipyridinyl-5′-carboxylic acid [7-fluoro-1-(2-fluoro-phenyl)-4-oxo-1,4-dihydro-quinolin-3-ylmethyl]-amide] returned an IC50 against JNK1 of 52 nM. Further, a half-maximal effect in experiment [1] (EC50) was put at 50000 nM.
For `COC(=O)c1c(CNc2ncnc3ccccc23)c(=O)c2ccc(Cl)cc2n1-c1ccccc1` [Example I-208, 7-Chloro-4-oxo-1-phenyl-3-(quinazolin-4-ylaminomethyl)-1,4-dihydro-quinoline-2-carboxylic acid methyl ester] the same measures were 60 nM and 8400 nM.
For `COC(=O)c1c(CNC(=O)c2ccc(-c3cnns3)cc2)c(=O)c2ccc(Cl)cc2n1-c1ccccc1` [Example I-124, 7-Chloro-4-oxo-1-phenyl-3-[(4-[1,2,3]thiadiazol-5-yl-benzoylamino)-methyl]-1,4-dihydro-quinoline-2-carboxylic acid methyl ester], in that order: 17 nM and 7800 nM.
On JNK1, `COC(=O)c1c(CNC(=O)c2cccc(OC)c2)c(=O)c2ccc(Cl)cc2n1-c1ccccc1` [Example I-135, 7-Chloro-3-[(3-methoxybenzoylamino)-methyl]-4-oxo-1-phenyl-1,4-dihydro-quinoline-2-carboxylic acid methyl ester] registered an IC50 of 8 nM. In experiment [1], this molecule showed an EC50 of 4800 nM.
For `COC(=O)c1c(CNC(=O)c2cccnc2)c(=O)c2ccc(OC)cc2n1-c1ccccc1` [Example I-165, 7-Methoxy-4-oxo-1-phenyl-3-{[(pyridine-3-carbonyl)-amino]-methyl}-1,4-dihydro-quinoline-2-carboxylic acidmethyl ester] the same measures were 65 nM and 100000 nM.
For `O=C(NCc1cn(-c2ccccc2)c2cc(Cl)ccc2c1=O)c1ccn(Cc2ccc(Cl)cc2)c(=O)c1` [Example I-34, 1-(4-Chloro-benzyl)-2-oxo-1,2-dihydro-pyridine-4-carboxylic acid (7-chloro-4-oxo-1-phenyl-1,4-dihydro-quinolin-3-ylmethyl)-amide] the same measures were 44 nM and 12000 nM.
For `COC(=O)c1c(CNC(=O)c2ccc(N3CCOCC3)nc2)c(=O)c2ccc(C(F)(F)F)nc2n1-c1ccccc1` [Example I-152, 3-{[(6-Morpholin-4-yl-pyridine-3-carbonyl)-amino]-methyl}-4-oxo-1-phenyl-7-trifluoromethyl-1,4-dihydro-[1,8]naphthyridine-2-carboxylic acid methyl ester] the same measures were 18 nM and 7800 nM.
`COC(=O)c1c(CNC(=O)c2ccccc2F)c(=O)c2ccc(Cl)cc2n1-c1ccccc1` [Example I-145, 7-Chloro-3-[(2-fluoro-benzoylamino)-methyl]-4-oxo-1-phenyl-1,4-dihydro-quinoline-2-carboxylic acid methyl ester]: the IC50 at JNK1 stood at 65 nM. The same molecule displayed an EC50 in experiment [1] of 100000 nM.
For `O=C(NCc1cn(-c2ccccc2)c2cc(Cl)ccc2c1=O)c1ccc(N2CCC(CO)CC2)nc1` [Example I-67, 4-Hydroxymethyl-3,4,5,6-tetrahydro-2H-[1,2′]bipyridinyl-5′-carboxylic acid (7-chloro-4-oxo-1-phenyl-1,4-dihydro-quinolin-3-ylmethyl)-amide] the same measures were 20 nM and 6300 nM.
For the molecule `O=C(NCc1cn(-c2ccccc2)c2cc(Cl)ccc2c1=O)c1cnn(-c2ccccc2)c1` [Example I-37, 1-Phenyl-1H-pyrazole-4-carboxylic acid (7-chloro-4-oxo-1-phenyl-1,4-dihydro-quinolin-3-ylmethyl)-amide], 72 nM corresponded to half-maximal inhibition against JNK1 (IC50). Besides, it took 25000 nM to reach a half-maximal effect in experiment [1] (EC50).

The values are drawn from patent publication US8501732B2, “Aminomethyl quinolone compounds” (Hoffmann-La Roche Inc., priority 2011, dated 2013).
